Test results taken from patent publication US20100267561A1, “HERBICIDAL PYRIDAZINONE DERIVATIVES” (priority 2007, published 2010).
Read-outs that look alike come from different tables or passages of the source.

What was measured:
Assay in all cases: Test B pre-/postemergence plant response
Assay type in all cases: in vivo
[1] = test system: Russian thistle (Salsola iberica); conditions: Preemergence
Procedure, shortened: (§1)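 Visual scoring from 0 (no effect) to 100 (complete control) against untreated controls was done 13 to 15 days after greenhouse treatment. Chemicals were formulated in a surfactant-containing non-phytotoxic solvent and applied to soil preemergence or to 1- to 4-leaf (2-18 cm) plants postemergence.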

[2] = test system: bermudagrass (Cynodon dactylon); conditions: for pest or weed control at 31 g/ha: 31 g ai/ha; for pest or weed control at 62 g/ha: 62 g ai/ha, 100 complete control
Procedure, shortened: as §1

[3] = test system: cocklebur (Xanthium strumarium); conditions: for pest or weed control at 31 g/ha: 31 g ai/ha; for pest or weed control at 62 g/ha: 62 g ai/ha, 100 complete control
Procedure, shortened: as §1

[4] = test system: common (oilseed) sunflower (Helianthus annuus); conditions: Preemergence
Procedure, shortened: as §1

[5] = test system: common ragweed (Ambrosia elation); conditions: for pest or weed control at 31 g/ha / pest or weed control at 62 g/ha: Ambrosia, read-out: Plant response rating, Ragweed; for pest or weed control at 31 g/ha: 31 g ai/ha; for pest or weed control at 62 g/ha: 62 g ai/ha, 100 complete control
Procedure, shortened: as §1

corn (Zea mays) = conditions: for Corn plant response rating (crop injury, 0 = no effect, 100 = complete kill) at 31 g/ha: 31 g ai/ha; for Corn plant response rating (crop injury, 0 = no effect, 100 = complete kill) at 62 g/ha: 62 g ai/ha, 100 complete control
Procedure, shortened: as §1

[6] = test system: goosegrass (Eleusine indica); conditions: for pest or weed control at 31 g/ha / pest or weed control at 62 g/ha: Eleusine indica, read-out: Plant response rating, Goosegrass; for pest or weed control at 31 g/ha: 31 g ai/ha; for pest or weed control at 62 g/ha: 62 g ai/ha, 100 complete control
Procedure, shortened: as §1

[7] = test system: lambsquarters (Chenopodium album); conditions: for pest or weed control at 31 g/ha / pest or weed control at 62 g/ha: Chenopodium album, read-out: Plant response rating, Lambsquarters; for pest or weed control at 31 g/ha: 31 g ai/ha; for pest or weed control at 62 g/ha: 62 g ai/ha, 100 complete control
Procedure, shortened: as §1

[8] = test system: large crabgrass (Digitaria sanguinalis); conditions: for pest or weed control at 31 g/ha: 31 g ai/ha; for pest or weed control at 62 g/ha: 62 g ai/ha, 100 complete control
Procedure, shortened: as §1

soybean (Glycine max) = conditions: for plant injury at 31 g/ha / plant injury at 62 g/ha: Glycine max, read-out: Plant response rating, Soybean; for plant injury at 31 g/ha: 31 g ai/ha; for plant injury at 62 g/ha: 62 g ai/ha, 100 complete control
Procedure, shortened: as §1

[9] = test system: surinam grass (Brachiaria decumbens); conditions: for pest or weed control at 31 g/ha / pest or weed control at 62 g/ha: Urochloa decumbens, read-out: Plant response rating, Surinam Grass; for pest or weed control at 31 g/ha: 31 g ai/ha; for pest or weed control at 62 g/ha: 62 g ai/ha, 100 complete control
Procedure, shortened: as §1

[10] = test system: wheat (Triticum aestivum); conditions: for plant injury at 31 g/ha / plant injury at 62 g/ha: Triticum aestivum, read-out: Plant response rating, Wheat; for plant injury at 31 g/ha: 31 g ai/ha; for plant injury at 62 g/ha: 62 g ai/ha, 100 complete control
Procedure, shortened: as §1

[11] = 8 g ai/ha, scale 0 to 100 (0 no effect, 100 complete control)
[12] = 8 g ai/ha, postemergence, 0-100 scale
[13] = Preemergence, 8 g ai/ha, scale 0 to 100 (0 no effect, 100 complete control)
[14] = Preemergence, 16 g ai/ha, scale 0 to 100
[15] = 16 g ai/ha, postemergence, 0-100 scale
[16] = post-emergence, Postemergence, scale 0 to 100
[17] = post-emergence, Postemergence, scale 0 to 100, 0 no effect
[18] = pre-emergence, Preemergence, scale 0 to 100 (0 no effect, 100 complete control)
[19] = pre-emergence, Preemergence, 0 to 100 scale, 0 no effect

Cc1nn(C)c(=O)c(-c2nc(-c3ccc(Cl)cc3)sc2C)c1O [Compound 79, 4-[2-(4-chlorophenyl)-5-methyl-4-thiazolyl]-5-hydroxy-2,6-dimethyl-3(2H)-pyridazinone]
Russian Thistle plant response rating [1, 11]: 0
Plant response rating, Russian Thistle ([1]; 31 g ai/ha, scale 0 to 100 (0 no effect, 100 complete control)): 0
Plant response rating, Russian Thistle ([1]; 62 g ai/ha, 0 to 100 scale, 0 no effect, 100 complete control): 0
Russian Thistle plant response rating ([1]; 16 g ai/ha, scale 0 to 100): 0
Bermudagrass plant response rating [2, 12]: 70
pest or weed control at 16 g/ha ([2]; Cynodon dactylon, post-emergence, Postemergence, 16 g ai/ha, scale 0 to 100, read-out: Plant response rating, Bermudagrass): 80%
pest or weed control at 31 g/ha ([2]; Cynodon dactylon, post-emergence, Postemergence, scale 0 to 100, read-out: Plant response rating, Bermudagrass): 100%
pest or weed control at 62 g/ha ([2]; Cynodon dactylon, post-emergence, Postemergence, scale 0 to 100, 0 no effect, read-out: Plant response rating, Bermudagrass): 100%
pest or weed control at 31 g/ha ([2]; Cynodon dactylon, pre-emergence, Preemergence, scale 0 to 100 (0 no effect, 100 complete control), read-out: Plant response rating, Bermudagrass): 100%
pest or weed control at 62 g/ha ([2]; Cynodon dactylon, pre-emergence, Preemergence, 0 to 100 scale, 0 no effect, read-out: Plant response rating, Bermudagrass): 100%
Bermudagrass plant response rating [2, 13]: 90
Bermudagrass plant response rating ([2]; Preemergence, 16 g ai/ha, scale 0 to 100 (0 no effect, 100 complete control)): 100
Cocklebur plant response rating [3, 12]: 0
Cocklebur plant response rating [3, 13]: 0
Cocklebur plant response rating [3, 14]: 0
pest or weed control at 16 g/ha ([3]; Xanthium strumarium, post-emergence, Postemergence, 16 g ai/ha, scale 0 to 100, read-out: Plant response rating, Cocklebur): 0%
pest or weed control at 31 g/ha ([3]; Xanthium strumarium, post-emergence, Postemergence, scale 0 to 100, read-out: Plant response rating, Cocklebur): 0%
pest or weed control at 62 g/ha ([3]; Xanthium strumarium, post-emergence, Postemergence, scale 0 to 100, 0 no effect, read-out: Plant response rating, Cocklebur): 0%
pest or weed control at 31 g/ha ([3]; Xanthium strumarium, pre-emergence, Preemergence, scale 0 to 100 (0 no effect, 100 complete control), read-out: Plant response rating, Cocklebur): 0%
pest or weed control at 62 g/ha ([3]; Xanthium strumarium, pre-emergence, Preemergence, 0 to 100 scale, 0 no effect, read-out: Plant response rating, Cocklebur): 0%
pest or weed control at 31 g/ha ([4]; Helianthus annuus, pre-emergence, 31 g ai/ha, scale 0 to 100 (0 no effect, 100 complete control), read-out: Plant response rating, Sunflower): 0%
pest or weed control at 62 g/ha ([4]; Helianthus annuus, pre-emergence, 62 g ai/ha, 0 to 100 scale, 0 no effect, 100 complete control, read-out: Plant response rating, Sunflower): 0%
Sunflower plant response rating [4, 11]: 0
Sunflower plant response rating ([4]; 16 g ai/ha, scale 0 to 100): 0
Ragweed plant response rating [5, 12]: 0
Ragweed plant response rating [5, 15]: 0
pest or weed control at 31 g/ha [5, 16]: 0%
pest or weed control at 62 g/ha [5, 17]: 0%
pest or weed control at 31 g/ha [5, 18]: 0%
pest or weed control at 62 g/ha [5, 19]: 0%
Ragweed plant response rating [5, 13]: 0
Ragweed plant response rating [5, 14]: 0
Corn plant response rating (corn (Zea mays); [12]): 0
Corn plant response rating (corn (Zea mays); [13]): 0
Corn plant response rating (corn (Zea mays); [14]): 0
Corn plant response rating (crop injury, 0 = no effect, 100 = complete kill) at 16 g/ha (corn (Zea mays); Zea mays, post-emergence, Postemergence, 16 g ai/ha, scale 0 to 100): 0%
Corn plant response rating (crop injury, 0 = no effect, 100 = complete kill) at 31 g/ha (corn (Zea mays); Zea mays, post-emergence, Postemergence, scale 0 to 100): 20%
Corn plant response rating (crop injury, 0 = no effect, 100 = complete kill) at 62 g/ha (corn (Zea mays); Zea mays, post-emergence, Postemergence, scale 0 to 100, 0 no effect): 35%
Corn plant response rating (crop injury, 0 = no effect, 100 = complete kill) at 31 g/ha (corn (Zea mays); Zea mays, pre-emergence, Preemergence, scale 0 to 100 (0 no effect, 100 complete control)): 50%
Corn plant response rating (crop injury, 0 = no effect, 100 = complete kill) at 62 g/ha (corn (Zea mays); Zea mays, pre-emergence, Preemergence, 0 to 100 scale, 0 no effect): 100%
Goosegrass plant response rating [6, 12]: 60
Goosegrass plant response rating [6, 15]: 80
pest or weed control at 31 g/ha [6, 16]: 85%
pest or weed control at 62 g/ha [6, 17]: 90%
pest or weed control at 31 g/ha [6, 18]: 100%
pest or weed control at 62 g/ha [6, 19]: 100%
Goosegrass plant response rating [6, 13]: 98
Goosegrass plant response rating [6, 14]: 100
Lambsquarters plant response rating [7, 12]: 0
Lambsquarters plant response rating [7, 15]: 0
pest or weed control at 31 g/ha [7, 16]: 0%
pest or weed control at 62 g/ha [7, 17]: 0%
pest or weed control at 31 g/ha [7, 18]: 20%
pest or weed control at 62 g/ha [7, 19]: 100%
Lambsquarters plant response rating [7, 13]: 0
Lambsquarters plant response rating [7, 14]: 0
Crabgrass, Large plant response rating [8, 12]: 75
pest or weed control at 16 g/ha ([8]; Digitaria sanguinalis, post-emergence, Postemergence, 16 g ai/ha, scale 0 to 100, read-out: Plant response rating, Crabgrass, Large): 80%
pest or weed control at 31 g/ha ([8]; Digitaria sanguinalis, post-emergence, Postemergence, scale 0 to 100, read-out: Plant response rating, Crabgrass, Large): 85%
pest or weed control at 62 g/ha ([8]; Digitaria sanguinalis, post-emergence, Postemergence, scale 0 to 100, 0 no effect, read-out: Plant response rating, Crabgrass, Large): 98%
pest or weed control at 31 g/ha ([8]; Digitaria sanguinalis, pre-emergence, Preemergence, scale 0 to 100 (0 no effect, 100 complete control), read-out: Plant response rating, Crabgrass, Large): 100%
pest or weed control at 62 g/ha ([8]; Digitaria sanguinalis, pre-emergence, Preemergence, 0 to 100 scale, 0 no effect, read-out: Plant response rating, Crabgrass, Large): 100%
Crabgrass, Large plant response rating [8, 13]: 20
Crabgrass, Large plant response rating [8, 14]: 100
Soybean plant response rating (soybean (Glycine max); [12]): 0
Soybean plant response rating (soybean (Glycine max); [15]): 0
plant injury at 31 g/ha (soybean (Glycine max); [16]): 15%
plant injury at 62 g/ha (soybean (Glycine max); [17]): 15%
plant injury at 31 g/ha (soybean (Glycine max); [18]): 98%
plant injury at 62 g/ha (soybean (Glycine max); [19]): 100%
Soybean plant response rating (soybean (Glycine max); [13]): 0
Soybean plant response rating (soybean (Glycine max); [14]): 0
Surinam Grass plant response rating [9, 12]: 65
Surinam Grass plant response rating [9, 15]: 70
Surinam Grass plant response rating [9, 13]: 75
Surinam Grass plant response rating [9, 14]: 85
pest or weed control at 31 g/ha [9, 16]: 75%
pest or weed control at 62 g/ha [9, 17]: 85%
pest or weed control at 31 g/ha [9, 18]: 100%
pest or weed control at 62 g/ha [9, 19]: 100%
Wheat plant response rating [10, 12]: 0
Wheat plant response rating [10, 15]: 20
Wheat plant response rating [10, 13]: 0
Wheat plant response rating [10, 14]: 0
plant injury at 31 g/ha [10, 16]: 60%
plant injury at 62 g/ha [10, 17]: 85%
plant injury at 31 g/ha [10, 18]: 0%
plant injury at 62 g/ha [10, 19]: 0%
